Experimental data published in patent US9090601B2, “Thiazole derivatives” (Millennium Pharmaceuticals, Inc., priority 2009, dated 2015).

Molecular target: T1, human mTOR (Homo sapiens, UniProt P42345)
T1 construct: purchased Invitrogen
Assay: Human mTOR enzyme assay (Z'-lyte peptide FRET)
Format: biochemical
Settings: mTOR enzyme activity, compound at 1.0 μm, 10 μM ATP
Method: mTOR reaction buffer (50 mM HEPES, pH 7.5, 5 mM MgCl2, 5 mM MnCl2, 1 mM EGTA, 1 mM DTT, 0.01% BRIJ-35, 0.01% NaN3) containing human mTOR (Invitrogen), 10 μM ATP and 2 μM Z′-lyte 11Ser/Thr peptide (Invitrogen) is added to the well and the mixture is reacted at room temperature for 1 hr.
Development Buffer containing Development Reagent B (for Z′-lyte peptide, Invitrogen) was added, and the mixture is reacted at room temperature for 30 min. The fluorescence at 520 nm and fluorescence at 445 nm are measured with excitation at 400 nm using SpectraMax M5e (Molecular Device). The ratio of the obtained 445 nm fluorescence value/520 nm fluorescence value is calculated, and changes in the fluorescence resonance energy transfer (FRET) of Z′-lyte peptide are detected as the enzyme activity.

T1 sequence (P42345 1360-2549 limits assumed): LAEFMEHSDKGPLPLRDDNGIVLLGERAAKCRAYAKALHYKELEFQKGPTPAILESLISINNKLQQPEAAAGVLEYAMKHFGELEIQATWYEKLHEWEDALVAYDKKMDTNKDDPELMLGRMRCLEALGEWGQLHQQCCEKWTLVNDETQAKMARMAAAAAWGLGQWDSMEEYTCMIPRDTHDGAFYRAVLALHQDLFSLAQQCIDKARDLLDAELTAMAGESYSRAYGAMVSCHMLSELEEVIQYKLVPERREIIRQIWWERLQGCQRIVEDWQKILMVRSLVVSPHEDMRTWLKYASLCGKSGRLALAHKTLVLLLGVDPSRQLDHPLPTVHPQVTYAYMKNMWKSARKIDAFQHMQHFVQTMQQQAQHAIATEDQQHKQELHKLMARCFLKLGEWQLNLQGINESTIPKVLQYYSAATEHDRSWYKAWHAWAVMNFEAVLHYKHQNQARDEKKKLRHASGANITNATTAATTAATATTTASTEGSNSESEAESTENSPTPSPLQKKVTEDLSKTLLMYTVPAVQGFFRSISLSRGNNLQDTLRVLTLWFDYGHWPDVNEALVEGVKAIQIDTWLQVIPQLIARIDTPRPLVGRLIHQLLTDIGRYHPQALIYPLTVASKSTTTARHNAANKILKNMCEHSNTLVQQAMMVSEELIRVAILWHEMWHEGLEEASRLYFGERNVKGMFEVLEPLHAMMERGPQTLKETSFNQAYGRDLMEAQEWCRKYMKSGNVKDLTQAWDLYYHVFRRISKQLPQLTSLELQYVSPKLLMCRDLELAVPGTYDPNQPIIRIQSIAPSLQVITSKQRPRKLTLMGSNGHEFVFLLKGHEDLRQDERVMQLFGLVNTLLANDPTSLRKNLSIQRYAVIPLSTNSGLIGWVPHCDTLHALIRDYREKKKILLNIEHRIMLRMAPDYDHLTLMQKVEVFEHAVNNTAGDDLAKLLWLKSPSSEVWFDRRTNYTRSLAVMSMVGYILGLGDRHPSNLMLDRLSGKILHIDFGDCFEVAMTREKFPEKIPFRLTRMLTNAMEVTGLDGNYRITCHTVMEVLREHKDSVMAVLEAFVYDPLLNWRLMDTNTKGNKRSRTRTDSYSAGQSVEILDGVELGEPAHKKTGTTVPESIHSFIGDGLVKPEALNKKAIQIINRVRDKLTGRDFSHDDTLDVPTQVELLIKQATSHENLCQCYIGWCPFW

## Cc1nn2ccc(OCCN3CCOCC3)cc2c1-c1nc(-c2ccccc2)c(-c2nnc[nH]2)s1 [Example 31-B, 2-methyl-5-(2-morpholin-4-ylethoxy)-3-[4-phenyl-5-(4H-1,2,4-triazol-3-yl)-1,3-thiazol-2-yl]pyrazolo[1,5-a]pyridine di-p-toluenesulfonate]
  Inhibitory rate at 1.0 μm (%): 93%
